Source: patent US20160237158A1, “Methods and Compositions for Targeting Tumor Microenvironment and for preventing Metastasis” (INSTITUT NATIONAL DE LA SANTÉ ET DA LA RECHERCHE MÉDICALE …, priority 2013, published 2016)

Tests used:
[1] = tested on: STAT3; assay: STAT3 phosphorylation in fibroblasts (western blot); type: cell-based, human
Excerpt: (§1) For western blot analysis, antibodies against STAT3 (#9134), pY705-STAT3 (#9145), SMAD2 (#3122), pSer465/467-SMAD2 (#3108), pY1022/1023-JAK1 (#3331), MLC2 (#3672), pThr18/19-MLC2 (#3674) were purchased from Cell Signaling (Cell Signaling Technology, Beverly Mass.), α-tubulin from sigma (T4026, Sigma, Saint Louis, Mo.); JAK1 from Biolegend (#604402, Biolegend, San Diego, Calif.), GP-130 (#sc-655) and RhoA (#sc-418, Santa Cruz Biotechnology, Santa Cruz, Calif.), and alpha-smooth muscle actin (α-SMA) from Abcam (#Ab5694, Abcam, Cambridge, Mass.). For immunofluorescence staining, antibodies against α-SMA and fibronectin were purchased from Sigma (#A2547 and F3648 respectively, Sigma, Saint Louis, Mo.). Chemical inhibitors used: Pyridone 6 (#42009, Calbiochem, Los Angeles, Calif.) was used at […], SB431542 (#1614, Tocris bioscience, Ellisville, Mo.) at 10 μM, Y27632 (#1254, Tocris bioscience, Ellisville, Mo.) and Actinomycin D (#856258, Sigma, Saint Louis, USA) at 5 μg/ml.
For immunoblotting analysis, cells were lysed on ice in lysis buffer (25 mM Tris (pH 6.8), 2% Sodium dodecyl sulfate (SDS), 5% glycerol, 1% beta-mercaptoethanol, 0.01% bromophenol blue). Equal amounts of protein from each sample were loaded on sodium dodecyl sulfate-polyacrylamide gel electrophoresis, separated, and transferred onto nitrocellulose. The immunoblots were blocked by incubation in 5% bovine serum albumin, 10 mM Tris-HCl (ph7.5), 500 mM NaCl, 0.1% Tween 20 for 30 min at room temperature, probed with specific antibodies and then with secondary antibodies using common classical methods. Immunodetection was performed using chemiluminescent HRP subtrate (#WBKLS0500, Millipore, Billerica, Mass.).

[2] = tested on: SMAD2; assay: SMAD2 phosphorylation in fibroblasts (western blot); type: cell-based, human; conditions: TGFβ1- or LIF-stimulated fibroblasts
Excerpt: as §1
For immunoblotting analysis, cells were lysed on ice in lysis buffer (25 mM Tris (pH 6.8), 2% Sodium dodecyl sulfate (SDS), 5% glycerol, 1% beta-mercaptoethanol, 0.01% bromophenol blue). Equal amounts of protein from each sample were loaded on sodium dodecyl sulfate-polyacrylamide gel electrophoresis, separated, and transferred onto nitrocellulose. […]

N#CCC(C1CCCC1)n1cc(-c2ncnc3[nH]ccc23)cn1 (stereo not drawn) [Ruxolitinib, 3-Cyclopentyl-3-[4-(7H-pyrrolo[2,3-d]pyrimidin-4-yl)-1H-pyrazol-1-yl]propanenitrile]
STAT3 phosphorylation ([1]; TGFβ1- or LIF-stimulated fibroblasts): repressing
CAF endogenous STAT3 activity ([1]; hCAF): inhibition
effect on SMAD2 [2]: no effect
